According to patent US20090022684A1, “Methods for hematopoietic stimulation” (priority 2006, published 2009):
Read-outs that look alike come from different tables or passages of the source. Positions of bridges follow the written chain, without caps; N, C: chain ends. Residues, ends and D or L forms follow the SMILES beside them.

Assay: Phase I clinical trial: plasma pharmacokinetics of the peptide
Assay type: in vivo, human
Details: for Dose Proportionality Day 1 AUC(0-tlast)/Dose / Dose Proportionality Day 1 Cmax/Dose / Dose Proportionality Day 7 AUC(0-τ)/Dose / Dose Proportionality Day 7 Cmax/Dose / Tmax / Cmax / half-life / AUC(0-t) / AUC / AUC(0-inf) / Vd/F / CL/F: plasma; for Tmax / Cmax / half-life / AUC(0-t) / AUC / AUC(0-inf) / Vd/F / CL/F: human, sc; for AUC(0-t): read-out: AUC(0-tlast); for AUC: read-out: AUC(0-τ); for Vd/F: read-out: Vz/F
Protocol: A Phase I, single-center, randomized double blind, placebo-controlled, multiple-escalating-dose study in healthy older volunteers was carried out for the peptide [Leu^27]cyclo(Glu^22-Lys^2 1)-hPTH-(1-31)-NH2 (SEQ ID NO: 4). Subjects were healthy males and females (non-reproductive potential), aged 40 to 65 years. […] […] For each dosage level, 2 subjects (I male and I female) received placebo and 6 subjects (3 males and 3 females) received the peptide daily.
Pharmacokinetics. Plasma concentrations of the peptide were analyzed using the WinNonlin 4.0 Noncompartmental module (Pharsight Inc., Mountainview, Calif.) or equivalent. The following pharmacokinetic parameters were computed from the peptide plasma concentration-time data (See FIGS. 4 and 5): • AUC(0-tlast): The area under the plasma concentration versus time curve, from time 0 to the last measurable concentration, as calculated by the linear trapezoidal method (Day 1). • AUC(0-τ): The area under the plasma concentration versus time curve, from time 0 to the last measurable concentration, as calculated by the linear trapezoidal method (Day 7). • AUC(0-∞) or AUCinf: The area under the plasma concentration versus time curve from time 0 to infinity. AUC(0-∞) is calculated as the sum of the AUC(0-tlast) plus the ratio of the last measurable plasma concentration to the elimination rate constant (Clast/kel), where Clast is the predicted concentration at the time of the last measurable concentration, as determined by linear regression, and kel is the apparent first-order elimination rate constant (Day 1). • AUC/AUCinf: The ratio of AUC(0-tlast) to AUC(0-∞). • Cmax: Maximum measured plasma concentration over the time span specified. • Tmax: Time of the maximum measured plasma concentration. If the maximum value occurs at more than one time point, Tmax is defined as the first time point with this value. • kel: Apparent first-order terminal elimination rate constant calculated from a semi-log plot of the plasma concentration versus time curve. This parameter was calculated by linear least squares regression analysis using the maximum number of points in the terminal log-linear phase (e.g. three or more non-zero plasma concentrations). • t1/2: The apparent first-order terminal elimination half-life was calculated as 0.693/kel. • Vz/F: Apparent volume of distribution of a drug following subcutaneous administration, calculated as Dose/( AUC(0-∞)·kel), (Day 1). • CL/F: Apparent total body clearance of a drug following […], calculated as Dose/AUC(0-∞), (Day 1).
Accumulation Index: Calculated as AUC(0-τ) Day 7/AUC(0-tlast) Day 1.

[1] = both sexes, 10 ug, Day 1, 10 μg s.c., geometric mean (CV %)
[2] = both sexes, 10 ug, Day 7, 10 μg s.c. daily, geometric mean (CV %)
[3] = both sexes, 20 ug, Day 1, 20 μg s.c., geometric mean (CV %)
[4] = both sexes, 20 ug, Day 7, 20 μg s.c. daily, geometric mean (CV %)
[5] = both sexes, 40 ug, Day 1, 40 μg s.c., geometric mean (CV %)
[6] = both sexes, 40 ug, Day 7, 40 μg s.c. daily, geometric mean (CV %)
[7] = both sexes, 60 ug, Day 1, 60 μg s.c., arithmetic mean (CV %)
[8] = both sexes, 60 ug, Day 1, 60 μg s.c., geometric mean (CV %)
[9] = both sexes, 60 ug, Day 7, 60 μg s.c. daily, geometric mean (CV %)
[10] = both sexes, 80 ug, Day 1, 80 μg s.c., arithmetic mean (CV %)
[11] = both sexes, 80 ug, Day 1, 80 μg s.c., geometric mean (CV %)
[12] = both sexes, 80 ug, Day 7, 80 μg s.c. daily, geometric mean (CV %)
[13] = both sexes, 20 ug, Day 1, 20 μg s.c., n = 1
[14] = both sexes, 40 ug, Day 1, 40 μg s.c., n = 1

accumulation (20 μg, 60 μg and 80 μg dose levels): no observed accumulation
Dose Proportionality Day 1 AUC(0-tlast)/Dose (Dose Level 10 μg): 1.08
Dose Proportionality Day 1 Cmax/Dose (Dose Level 10 μg): 2.35
Dose Proportionality Day 7 AUC(0-τ)/Dose (Dose Level 10 μg): 2.06
Dose Proportionality Day 7 Cmax/Dose (Dose Level 10 μg): 3.13
Dose Proportionality Day 1 AUC(0-tlast)/Dose (Dose Level 20 μg): 1.10
Dose Proportionality Day 1 Cmax/Dose (Dose Level 20 μg): 1.66
Dose Proportionality Day 7 AUC(0-τ)/Dose (Dose Level 20 μg): 1.14
Dose Proportionality Day 7 Cmax/Dose (Dose Level 20 μg): 1.95
Dose Proportionality Day 1 AUC(0-tlast)/Dose (Dose Level 30 μg): 3.30
Dose Proportionality Day 1 Cmax/Dose (Dose Level 30 μg): 2.92
Dose Proportionality Day 7 AUC(0-τ)/Dose (Dose Level 30 μg): 3.58
Dose Proportionality Day 7 Cmax/Dose (Dose Level 30 μg): 3.18
Dose Proportionality Day 1 AUC(0-tlast)/Dose (Dose Level 40 μg): 1.89
Dose Proportionality Day 1 Cmax/Dose (Dose Level 40 μg): 2.68
Dose Proportionality Day 7 AUC(0-τ)/Dose (Dose Level 40 μg): 2.68
Dose Proportionality Day 7 Cmax/Dose (Dose Level 40 μg): 3.19
Dose Proportionality Day 1 AUC(0-tlast)/Dose (Dose Level 60 μg): 1.61
Dose Proportionality Day 1 Cmax/Dose (Dose Level 60 μg): 1.85
Dose Proportionality Day 7 AUC(0-τ)/Dose (Dose Level 60 μg): 1.96
Dose Proportionality Day 7 Cmax/Dose (Dose Level 60 μg): 2.21
Tmax (both sexes, 10 ug, Day 1, 10 μg s.c., arithmetic mean (CV %)): 15 min
Cmax [1]: 0.0235 ng/mL
Tmax (both sexes, 10 ug, Day 7, 10 μg s.c. daily, arithmetic mean (CV %)): 15 min
Cmax [2]: 0.0313 ng/mL
Tmax (both sexes, 20 ug, Day 1, 20 μg s.c., arithmetic mean (CV %)): 20 min
Cmax [3]: 0.0332 ng/mL
Tmax (both sexes, 20 ug, Day 7, 20 μg s.c. daily, arithmetic mean (CV %)): 25 min
Cmax [4]: 0.0391 ng/mL
Tmax (both sexes, 40 ug, Day 1, 40 μg s.c., arithmetic mean (CV %)): 20.3 min
Cmax [5]: 0.107 ng/mL
Tmax (both sexes, 40 ug, Day 7, 40 μg s.c. daily, arithmetic mean (CV %)): 15 min
Cmax [6]: 0.128 ng/mL
Tmax [7]: 17.6 min
Cmax [8]: 0.111 ng/mL
Tmax (both sexes, 60 ug, Day 7, 60 μg s.c. daily, arithmetic mean (CV %)): 15 min
Cmax [9]: 0.133 ng/mL
Tmax [10]: 24 min
Cmax [11]: 0.234 ng/mL
Tmax (both sexes, 80 ug, Day 7, 80 μg s.c. daily, arithmetic mean (CV %)): 15.7 min
Cmax [12]: 0.254 ng/mL
half-life (both sexes, from 20 μg dose to 80 μg dose, s.c., read-out: mean t1/2 across dose groups): 32.8 to 46.7 min
AUC(0-t) [1]: 0.0108 ng·h/mL
AUC [2]: 0.0206 ng·h/mL
AUC(0-t) [3]: 0.022 ng·h/mL
AUC(0-inf) [13]: 0.092 ng·h/mL
Vd/F [13]: 171 L
half-life (both sexes, 20 ug, Day 1, 20 μg s.c., n = 1, read-out: t½ (converted)): 32.8 min
AUC [4]: 0.0228 ng·h/mL
AUC(0-t) [5]: 0.0755 ng·h/mL
AUC(0-inf) [14]: 0.134 ng·h/mL
Vd/F [14]: 247 L
half-life (both sexes, 40 ug, Day 1, 40 μg s.c., n = 1, read-out: t½ (converted)): 34.6 min
AUC [6]: 0.107 ng·h/mL
CL/F [7]: 7770 mL/min
Vd/F [7]: 477 L
AUC(0-inf) [8]: 0.139 ng·h/mL
AUC(0-t) [8]: 0.0965 ng·h/mL
half-life (both sexes, 60 ug, Day 1, 60 μg s.c., mean (CV %), read-out: t½ (converted)): 41.8 min
AUC [9]: 0.118 ng·h/mL
CL/F [10]: 5230 mL/min
Vd/F [10]: 361 L
AUC(0-inf) [11]: 0.257 ng·h/mL
AUC(0-t) [11]: 0.264 ng·h/mL
half-life (both sexes, 80 ug, Day 1, 80 μg s.c., mean (CV %), read-out: t½ (converted)): 46.7 min
AUC [12]: 0.286 ng·h/mL
CL/F (20 ug, Day 1, 20 μg s.c., n = 1): 3620 mL/min
CL/F (40 ug, Day 1, 40 μg s.c., n = 1): 4970 mL/min
dose proportionality of AUC(0-∞) (Day 1), AUC(0-τ) (Day 7), Cmax (Day 1) and Cmax (Day 7) (increasing dose from 10 μg to 80 μg): dose proportional
pharmacokinetic behavior, comparison AUC(0-τ) Day 7/AUC(0-∞) Day 1 (once-daily subcutaneous administration for 7 days of 60 μg and 80 μg doses): linear
Structure (SMILES): CC[C@H](C)[C@H](NC(=O)[C@H](CCC(=O)O)NC(=O)[C@H](CO)NC(=O)[C@@H](NC(=O)[C@@H](N)CO)C(C)C)C(=O)N[C@@H](CCC(N)=O)C(=O)N[C@@H](CC(C)C)C(=O)N[C@@H](CCSC)C(=O)N[C@@H](Cc1c[nH]cn1)C(=O)N[C@@H](CC(N)=O)C(=O)N[C@@H](CC(C)C)C(=O)NCC(=O)N[C@@H](CCCCN)C(=O)N[C@@H](Cc1c[nH]cn1)C(=O)N[C@@H](CC(C)C)C(=O)N[C@@H](CC(N)=O)C(=O)N[C@@H](CO)C(=O)N[C@@H](CCSC)C(=O)N[C@@H](CCC(=O)O)C(=O)N[C@@H](CCCN=C(N)N)C(=O)N[C@H](C(=O)N[C@H]1CCC(=O)NCCCC[C@@H](C(=O)N[C@@H](CC(C)C)C(=O)N[C@@H](CC(C)C)C(=O)N[C@@H](CCC(N)=O)C(=O)N[C@@H](CC(=O)O)C(=O)N[C@H](C(N)=O)C(C)C)NC(=O)[C@H](CCCN=C(N)N)NC(=O)[C@H](CC(C)C)NC(=O)[C@H](Cc2c[nH]c3ccccc23)NC1=O)C(C)C [[Leu^27]cyclo(Glu^22-Lys^26)-hPTH-(1-31)-NH2] (H-SVSEIQLMHNLGKHLNSMERVEWLRKLLQDV-NH2; lactam 22-26)
